Our source for the Kd, IC50 and inhibition values is patent publication US9845319B2, “Amide substituted thiazoles as modulators of RORyt” (Janssen Pharmaceutica NV, priority 2014, dated 2017).

A word on the Kd: it is a measure of binding affinity in units of concentration. Broadly, the IC50 is the concentration needed to halve the response being measured. What is called inhibition is the drop in the measured response relative to a control, in per cent.

Assay [1] deals with T1, human RORγt ligand binding domain (RORγt LBD) (Homo sapiens, UniProt P51449).
T1 construct: His-tag (N); TurboTEV protease cleavage site (ENLYFQG) (N); made in house; host or cells: E. coli (pHIS1, a modified pET expression vector)
T1 sequence (P51449 with tags, fused parts or gaps): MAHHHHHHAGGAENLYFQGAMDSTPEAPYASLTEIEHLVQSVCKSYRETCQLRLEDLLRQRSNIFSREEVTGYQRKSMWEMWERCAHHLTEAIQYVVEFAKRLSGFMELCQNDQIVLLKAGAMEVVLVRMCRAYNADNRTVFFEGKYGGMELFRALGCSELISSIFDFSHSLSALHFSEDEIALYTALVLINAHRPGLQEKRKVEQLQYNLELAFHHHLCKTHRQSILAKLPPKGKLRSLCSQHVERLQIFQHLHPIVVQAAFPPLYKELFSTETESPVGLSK
Nature of the assay: RORγt ThermoFluor assay. To be noted: estimated from thermal shift concentration response. In short, it runs like this:
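Thermal shift of RORγt LBD (0.065 mg/mL) with 60 μM 1,8-ANS in 100 mM Hepes pH 7.0, NaCl, GSH, 0.002% Tween-20, heated at 1° C/min. ANS fluorescence tracked versus temperature; ΔTm relative to DMSO wells. Compounds serially diluted 1:2 from 10 mM DMSO stock.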

The target of another assay is T2, full-length human RORγt (Homo sapiens, UniProt P51449).
T2 construct: expressed in transfected cells; host or cells: HEK293T, transiently transfected with pCMV-BD-ROR
T2 sequence (P51449 1-497 isoform P51449-2): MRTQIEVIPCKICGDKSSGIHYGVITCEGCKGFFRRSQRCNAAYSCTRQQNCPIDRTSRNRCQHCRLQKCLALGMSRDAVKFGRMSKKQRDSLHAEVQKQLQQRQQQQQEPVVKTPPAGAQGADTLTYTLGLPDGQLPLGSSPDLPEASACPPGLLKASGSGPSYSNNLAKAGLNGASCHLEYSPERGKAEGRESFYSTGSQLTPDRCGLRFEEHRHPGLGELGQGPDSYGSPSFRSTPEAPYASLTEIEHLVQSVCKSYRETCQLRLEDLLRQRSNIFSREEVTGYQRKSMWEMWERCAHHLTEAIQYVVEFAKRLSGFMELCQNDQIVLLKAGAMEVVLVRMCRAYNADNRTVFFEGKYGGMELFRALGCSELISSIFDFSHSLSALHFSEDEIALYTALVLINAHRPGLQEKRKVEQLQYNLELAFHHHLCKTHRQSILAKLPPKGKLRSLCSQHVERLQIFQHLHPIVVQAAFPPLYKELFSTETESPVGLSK
Nature of the assay: RORγt (full-length human) Reporter Assay, Conditions A. It is filed as cell-based. The settings on record: for IC50: HEK293T cells, GAL4-DBD-RORγt, luciferase, read-out: RORγt (FL) Reporter Assay A, IC50; for inhibition at 6 µM: read-out: RORγt (FL) Reporter Assay A, % inhibition @ 6 μM, 6 μM compound; for inhibition at 2 µM: read-out: RORγt (FL) Reporter Assay A, % inhibition (* at 2 μM), 2 μM compound concentration (footnote *). In short, it runs like this: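 Reporter cells lysed after 16–20 h compound exposure; firefly and Renilla luciferase luminescence measured. Firefly signal normalised to DMSO and saturating reference compound, then to Renilla; IC50 from normalised data versus concentration, percent inhibition relative to DMSO.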

Molecules are shown by their SMILES.

Take `C[C@H](NS(=O)(=O)c1ccc(-c2sc(-c3nnc(C(C)(C)O)o3)nc2C(=O)N2CCC(F)(F)CC2)c(C(F)F)c1Cl)C(F)(F)F` [Example 6/14, (S)-2-Chloro-3-(difluoromethyl)-4-(4-(4,4-difluoropiperidine-1-carbonyl)-2-(5-(2-hydroxypropan-2-yl)-1,3,4-oxadiazol-2-yl)thiazol-5-yl)-N-(1,1,1-trifluoropropan-2-yl)benzenesulfonamide]: the dissociation constant (Kd) in assay [1] was 3.3 nM. In addition, at full-length human RORγt, the IC50 stood at 73 nM and the inhibition at 6 µM was found to be 105%.
On the same counts, the results for `CC[C@H](NS(=O)(=O)c1ccc(-c2sc(-c3nnc(C(C)(C)O)o3)nc2C(=O)N2CCC(F)(F)CC2)c(Cl)c1F)C(F)(F)F` [Example 6/15, (S)-3-Chloro-4-(4-(4,4-difluoropiperidine-1-carbonyl)-2-(5-(2-hydroxypropan-2-yl)-1,3,4-oxadiazol-2-yl)thiazol-5-yl)-2-fluoro-N-(1,1,1-trifluorobutan-2-yl)benzenesulfonamide] are 0.89 nM, 33 nM and 107%.
In the case of `CC[C@H](NS(=O)(=O)c1ccc(-c2sc(-c3nnc(C(C)(C)O)o3)nc2C(=O)N2CCC(F)(F)CC2)c(F)c1C(F)F)C(F)(F)F` [Example 6/16, (S)-2-(Difluoromethyl)-4-(4-(4,4-difluoropiperidine-1-carbonyl)-2-(5-(2-hydroxypropan-2-yl)-1,3,4-oxadiazol-2-yl)thiazol-5-yl)-3-fluoro-N-(1,1,1-trifluorobutan-2-yl)benzenesulfonamide], the Kd in assay [1] was 0.47 nM. For the same compound, on full-length human RORγt, the IC50 was 38 nM and the inhibition at 6 µM stood at 104%.
For `CC(C)(O)c1nnc(-c2nc(C(=O)N3CCC(F)(F)CC3)c(-c3ccc(S(=O)(=O)NC4(C(F)F)CC4)c(F)c3Cl)s2)o1` [Example 6/17, 3-Chloro-N-(1-(difluoromethyl)cyclopropyl)-4-(4-(4,4-difluoropiperidine-1-carbonyl)-2-(5-(2-hydroxypropan-2-yl)-1,3,4-oxadiazol-2-yl)thiazol-5-yl)-2-fluorobenzenesulfonamide], in that order: 21 nM, 100 nM and 105%.
Regarding `C[C@H](NS(=O)(=O)c1ccc(-c2sc(-c3nnc(C(C)(C)O)o3)nc2C(=O)N2CCCC[C@@H]2C)c(C(F)F)c1F)C(F)(F)F` [Example 6/18, 3-(Difluoromethyl)-2-fluoro-4-(2-(5-(2-hydroxypropan-2-yl)-1,3,4-oxadiazol-2-yl)-4-((S)-2-methylpiperidine-1-carbonyl)thiazol-5-yl)-N—((S)-1,1,1-trifluoropropan-2-yl)benzenesulfonamide], in assay [1], the Kd is 1 nM. Further, at full-length human RORγt, the IC50 came to 82 nM and the inhibition at 6 µM turned out to be 104%.
For the compound `CC(C)(O)c1nnc(-c2nc(C(=O)N3CCC(F)(F)CC3)c(-c3ccc(S(=O)(=O)NC(C)(C)C(F)(F)F)c(F)c3Cl)s2)o1` [Example 6/19, 3-Chloro-4-(4-(4,4-difluoropiperidine-1-carbonyl)-2-(5-(2-hydroxypropan-2-yl)-1,3,4-oxadiazol-2-yl)thiazol-5-yl)-2-fluoro-N-(1,1,1-trifluoro-2-methylpropan-2-yl)benzenesulfonamide], the Kd in assay [1] was 6.1 nM. Further, at full-length human RORγt, the IC50 was found to be 76 nM and the inhibition at 6 µM was found to be 107%.
As to `CC[C@H](NS(=O)(=O)c1ccc(-c2sc(-c3nnc(C(C)(C)O)o3)nc2C(=O)N(CC)CC)c(Cl)c1F)C(F)(F)F` [Example 6/20, (S)-5-(2-Chloro-3-fluoro-4-(N-(1,1,1-trifluorobutan-2-yl)sulfamoyl)phenyl)-N,N-diethyl-2-(5-(2-hydroxypropan-2-yl)-1,3,4-oxadiazol-2-yl)thiazole-4-carboxamide], the Kd in assay [1] was 11 nM. In addition, at full-length human RORγt, the IC50 turned out to be 43 nM and the inhibition at 2 µM was 102%.
Take `C[C@H](NS(=O)(=O)c1ccc(-c2sc(-c3nnc(C(C)(C)O)o3)nc2C(=O)N2CC(F)C[C@@H]2C)c(C(F)F)c1F)C(F)(F)F` (stereo partly drawn) [Example 6/21, 3-(Difluoromethyl)-2-fluoro-4-(4-((2S)-4-fluoro-2-methylpyrrolidine-1-carbonyl)-2-(5-(2-hydroxypropan-2-yl)-1,3,4-oxadiazol-2-yl)thiazol-5-yl)-N—((S)-1,1,1-trifluoropropan-2-yl)benzenesulfonamide]: the Kd in assay [1] is 270 nM. In addition, on full-length human RORγt, the IC50 turned out to be 410 nM and the inhibition at 6 µM was determined as 102%.
On to `CC(C)(O)c1nnc(-c2nc(C(=O)N3CC(F)(F)CC3(C)C)c(-c3ccc(S(=O)(=O)NC4(C(F)F)CC4)c(F)c3Cl)s2)o1` [Example 6/22, 3-Chloro-4-(4-(4,4-difluoro-2,2-dimethylpyrrolidine-1-carbonyl)-2-(5-(2-hydroxypropan-2-yl)-1,3,4-oxadiazol-2-yl)thiazol-5-yl)-N-(1-(difluoromethyl)cyclopropyl)-2-fluorobenzenesulfonamide], for which the Kd in assay [1] is 1200 nM. Besides, on full-length human RORγt, the IC50 was found to be 1600 nM and the inhibition at 6 µM worked out at 74%.
As to `CN(CC(F)(F)F)S(=O)(=O)c1ccc(-c2sc(-c3nnc(C(C)(C)O)o3)nc2C(=O)N2CCC(F)(F)CC2)c(Cl)c1F` [Example 6/23, 3-Chloro-4-(4-(4,4-difluoropiperidine-1-carbonyl)-2-(5-(2-hydroxypropan-2-yl)-1,3,4-oxadiazol-2-yl)thiazol-5-yl)-2-fluoro-N-methyl-N-(2,2,2-trifluoroethyl)benzenesulfonamide], the Kd in assay [1] is 6000 nM. On full-length human RORγt, the IC50 is 2300 nM and the inhibition at 6 µM came out at 40%.
Turning to `C[C@H]1CCCN1C(=O)c1nc(-c2nnc(C(C)(C)O)o2)sc1-c1ccc(OCC(O)(C(F)(F)F)C(F)(F)F)cc1C(F)(F)F` [Example 6/24, (S)-(2-(5-(2-Hydroxypropan-2-yl)-1,3,4-oxadiazol-2-yl)-5-(4-(3,3,3-trifluoro-2-hydroxy-2-(trifluoromethyl)propoxy)-2-(trifluoromethyl)phenyl)thiazol-4-yl)(2-methylpyrrolidin-1-yl)methanone], the Kd in assay [1] is 11 nM. For the same compound, at full-length human RORγt, the 50% inhibitory concentration (IC50) stood at 130 nM and the inhibition at 2 µM turned out to be 96%.
As for `CCN(CC)C(=O)c1nc(-c2nnc(C)o2)sc1-c1ccc(S(=O)(=O)N[C@@H](C)C(F)(F)F)c(Cl)c1Cl` [Example 7, (S)-5-(2,3-Dichloro-4-(N-(1,1,1-trifluoropropan-2-yl)sulfamoyl)phenyl)-N,N-diethyl-2-(5-methyl-1,3,4-oxadiazol-2-yl)thiazole-4-carboxamide], the Kd in assay [1] is 290 nM. At full-length human RORγt, the IC50 was determined as 120 nM and the inhibition at 6 µM stood at 102%.
On to `C[C@H](NS(=O)(=O)c1ccc(-c2sc(-c3nnc(C(C)(C)O)o3)nc2C(=O)N2CCC(F)(F)CC2)c(Cl)c1F)C(F)(F)F` [Example 8/1, (S)-3-Chloro-4-(4-(4,4-difluoropiperidine-1-carbonyl)-2-(5-(2-hydroxypropan-2-yl)-1,3,4-oxadiazol-2-yl)thiazol-5-yl)-2-fluoro-N-(1,1,1-trifluoropropan-2-yl)benzenesulfonamide], for which the Kd in assay [1] was 5.6 nM. Moreover, at full-length human RORγt, the IC50 amounted to 61 nM and the inhibition at 6 µM was determined as 108%.
Take `CC(C)(O)c1nnc(-c2nc(C(=O)N3CCC(F)(F)CC3)c(-c3ccc(CC(O)(C(F)(F)F)C(F)(F)F)c(Cl)c3Cl)s2)o1` [Example 8/2, (5-(2,3-Dichloro-4-(3,3,3-trifluoro-2-hydroxy-2-(trifluoromethyl)propyl)phenyl)-2-(5-(2-hydroxypropan-2-yl)-1,3,4-oxadiazol-2-yl)thiazol-4-yl)(4,4-difluoropiperidin-1-yl)methanone]: the Kd in assay [1] was 1.7 nM. Also, at full-length human RORγt, the half-inhibitory concentration (IC50) was 51 nM and the inhibition at 2 µM was 104%.
On to `CC(C)(O)c1nnc(-c2nc(C(=O)N3CCC(F)(F)CC3)c(-c3ccc(CC(O)(C(F)(F)F)C(F)(F)F)c(Cl)c3)s2)o1` [Example 8/3, (5-(3-Chloro-4-(3,3,3-trifluoro-2-hydroxy-2-(trifluoromethyl)propyl)phenyl)-2-(5-(2-hydroxypropan-2-yl)-1,3,4-oxadiazol-2-yl)thiazol-4-yl)(4,4-difluoropiperidin-1-yl)methanone], for which the Kd in assay [1] is 6.3 nM. For the same compound, at full-length human RORγt, the IC50 is 83 nM and the inhibition at 2 µM is 104%.
